The values that follow come from US20140058103A1, “Inhibitors of PI3K-Delta and Methods of Their Use and Manufacture” (Exelixis, Inc., priority 2010, published 2014).

pIC50: −log10 of the molar value.

Sequence of PI3K delta (O00329 whole entry): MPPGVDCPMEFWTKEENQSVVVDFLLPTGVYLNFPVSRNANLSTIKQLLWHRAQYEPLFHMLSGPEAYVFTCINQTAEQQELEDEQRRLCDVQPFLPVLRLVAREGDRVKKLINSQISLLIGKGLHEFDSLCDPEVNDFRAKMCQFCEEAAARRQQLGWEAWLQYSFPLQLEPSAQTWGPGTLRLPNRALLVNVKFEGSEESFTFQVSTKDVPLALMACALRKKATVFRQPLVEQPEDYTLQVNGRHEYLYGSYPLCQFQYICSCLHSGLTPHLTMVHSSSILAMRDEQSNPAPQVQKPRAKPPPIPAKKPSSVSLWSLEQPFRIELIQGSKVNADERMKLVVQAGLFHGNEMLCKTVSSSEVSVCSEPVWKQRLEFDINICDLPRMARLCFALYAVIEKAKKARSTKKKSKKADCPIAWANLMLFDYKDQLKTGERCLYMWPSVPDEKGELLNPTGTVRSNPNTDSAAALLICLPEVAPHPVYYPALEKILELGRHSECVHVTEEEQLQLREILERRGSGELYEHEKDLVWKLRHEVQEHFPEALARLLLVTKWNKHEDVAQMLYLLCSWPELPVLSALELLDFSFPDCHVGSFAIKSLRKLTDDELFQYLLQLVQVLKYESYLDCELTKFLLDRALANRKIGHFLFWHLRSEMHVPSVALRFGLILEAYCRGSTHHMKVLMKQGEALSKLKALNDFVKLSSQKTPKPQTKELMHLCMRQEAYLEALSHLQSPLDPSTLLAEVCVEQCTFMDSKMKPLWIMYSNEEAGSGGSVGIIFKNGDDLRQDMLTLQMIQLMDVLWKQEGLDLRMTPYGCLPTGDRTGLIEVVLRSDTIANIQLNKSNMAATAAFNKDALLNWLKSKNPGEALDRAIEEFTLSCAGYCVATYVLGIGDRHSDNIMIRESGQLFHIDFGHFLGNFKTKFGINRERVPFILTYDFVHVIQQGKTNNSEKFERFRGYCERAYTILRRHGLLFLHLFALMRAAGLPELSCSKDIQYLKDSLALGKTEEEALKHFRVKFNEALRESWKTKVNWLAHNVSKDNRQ
Sequence of PI3K delta (P27986 whole entry partner): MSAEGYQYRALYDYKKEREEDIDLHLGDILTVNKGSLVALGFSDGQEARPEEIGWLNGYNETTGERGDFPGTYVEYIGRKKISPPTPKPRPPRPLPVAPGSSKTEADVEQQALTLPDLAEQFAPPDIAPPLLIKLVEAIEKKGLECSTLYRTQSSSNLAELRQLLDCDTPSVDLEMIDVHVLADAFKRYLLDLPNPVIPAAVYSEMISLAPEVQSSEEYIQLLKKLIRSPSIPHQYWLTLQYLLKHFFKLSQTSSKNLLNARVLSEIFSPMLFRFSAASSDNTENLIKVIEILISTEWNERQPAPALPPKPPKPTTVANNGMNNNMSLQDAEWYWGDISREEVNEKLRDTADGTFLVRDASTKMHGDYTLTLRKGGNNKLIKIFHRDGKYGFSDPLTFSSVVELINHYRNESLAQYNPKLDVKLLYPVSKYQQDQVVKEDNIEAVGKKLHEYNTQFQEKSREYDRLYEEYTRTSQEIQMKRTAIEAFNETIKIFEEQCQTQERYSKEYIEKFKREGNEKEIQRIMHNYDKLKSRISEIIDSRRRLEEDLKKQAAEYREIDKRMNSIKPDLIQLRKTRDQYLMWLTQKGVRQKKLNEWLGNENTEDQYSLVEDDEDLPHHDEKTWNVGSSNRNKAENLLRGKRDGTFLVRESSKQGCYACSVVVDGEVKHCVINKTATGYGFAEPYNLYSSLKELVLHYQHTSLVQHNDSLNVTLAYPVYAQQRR

This experiment deals with PI3K delta (Homo sapiens, UniProt O00329). The experiment can be described thus: Luciferase-coupled chemiluminescence kinase assay (ATP consumption, KinaseGlo). The class given is biochemical. The essentials:
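Compound, kinase and ATP (≤ KM) reacted 2 h at ambient temperature, then remaining ATP quantified with luciferase-luciferin (KinaseGlo) luminescence as percent consumed.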
A general note: Kinase-Glo reads ATP consumption through a luciferase reaction.
What is called pIC50 is −log10 of the IC50, conventionally taken in molar units. The low end stands for a high IC50, the high end for a low IC50. Compound `Cn1c(C(=O)NCC2CC2)nc2c(N3CCC4(CC3)C(=O)Oc3ccccc34)ncnc21` [Compound 129, N-(cyclopropylmethyl)-9-methyl-6-(2-oxo-1′H-spiro[1-benzofuran-3,4′-piperidin]-1′-yl)-9H-purine-8-carboxamide] showed a pIC50 of 6.30 to 6.60.
The compound `Cn1c(C(=O)NCC2CC2)nc2c(N3CCC4(CC3)c3ccccc3CC4O)ncnc21` (stereo not shown) [Compound 130, N-(cyclopropylmethyl)-6-(2-hydroxy-2,3-dihydro-1′H-spiro[indene-1,4′-piperidin]-1′-yl)-9-methyl-9H-purine-8-carboxamide] gave a pIC50 of 6.60 to 7.30.
`Cn1c(C(=O)NCC2CC2)nc2c(N3CCC4(CC3)OCc3ccccc34)ncnc21` [Compound 132, N-(cyclopropylmethyl)-9-methyl-6-(1′H,3H-spiro[2-benzofuran-1,4′-piperidin]-1′-yl)-9H-purine-8-carboxamide] showed a pIC50 of 5.82 to 6.30.
To `Cn1c(C(=O)NCC2CC2)nc2c(N3CCC(N4c5ccccc5NS4(=O)=O)CC3)ncnc21` [Compound 133, N-(cyclopropylmethyl)-6-[4-(2,2-dioxido-2,1,3-benzothiadiazol-1(3H)-yl)piperidin-1-yl]-9-methyl-9H-purine-8-carboxamide] belongs 6.60 to 7.30; to `Cn1c(C(F)(F)F)nc2c(N3CCC(n4c(=O)[nH]c5ccccc54)CC3)ncnc21` [Compound 134, 1-{1-[9-Methyl-8-(trifluoromethyl)-9H-purin-6-yl]piperidin-4-yl}-1,3-dihydro-2H-benzimidazol-2-one], 6.30 to 6.60; to `Cn1c(-c2cnco2)nc2c(N3CCC(n4c(=O)[nH]c5ccccc54)CC3)ncnc21` [Compound 135, 1-{1-[9-methyl-8-(1,3-oxazol-5-yl)-9H-purin-6-yl]piperidin-4-yl}-1,3-dihydro-2H-benzimidazol-2-one], 6.60 to 7.30.
With `CC(C)c1ccc2c(c1)C1(CCN(c3ncnc4c3nc(C(=O)NCC3CC3)n4C)CC1)C(=O)N2` [Compound 136, N-(cyclopropylmethyl)-9-methyl-6-[5-(1-methylethyl)-2-oxo-1,2-dihydro-1′H-spiro[indole-3,4′-piperidin]-1′-yl]-9H-purine-8-carboxamide], the pIC50 is 5.82 to 6.30.
As for `Cn1c(C(=O)NCC2CC2)nc2c(N3CC(n4c(=O)[nH]c5ccccc54)C3)ncnc21` [Compound 137, N-(cyclopropylmethyl)-9-methyl-6-[3-(2-oxo-2,3-dihydro-1H-benzimidazol-1-yl)azetidin-1-yl]-9H-purine-8-carboxamide], the pIC50 was 6.60 to 7.30.
Regarding `Cn1c(C(=O)NCC2CC2)nc2c(N3CCC4(CC3)OC(=O)c3ccccc34)ncnc21` [Compound 138, N-(cyclopropylmethyl)-9-methyl-6-(3-oxo-1′H,3H-spiro[2-benzofuran-1,4′-piperidin]-1′-yl)-9H-purine-8-carboxamide], the pIC50 was 5.82 to 6.30.
In the case of `C#CCNC(=O)c1nc2c(N3CCC(n4c(=O)[nH]c5ccccc54)CC3)ncnc2n1C` [Compound 139, 9-methyl-6-[4-(2-oxo-2,3-dihydro-1H-benzimidazol-1-yl)piperidin-1-yl]-N-prop-2-yn-1-yl-9H-purine-8-carboxamide], the pIC50 is 6.60 to 7.30.
Consider `C#CCNC(=O)c1nc2c(N3CCC4(CC3)C(=O)Nc3ccccc34)ncnc2n1C` [Compound 140, 9-methyl-6-(2-oxo-1,2-dihydro-1′H-spiro[indole-3,4′-piperidin]-1′-yl)-N-prop-2-yn-1-yl-9H-purine-8-carboxamide], for which the pIC50 was 6.60 to 7.30.
For the compound `CN1C(=O)C2(CCN(c3ncnc4c3nc(C(=O)NCC3CC3)n4C)CC2)c2ccccc21` [Compound 141, N-(cyclopropylmethyl)-9-methyl-6-(1-methyl-2-oxo-1,2-dihydro-1′H-spiro[indole-3,4′-piperidin]-1′-yl)-9H-purine-8-carboxamide], the pIC50 is 5.82 to 6.30.
To `Cn1c(C(=O)NCC2CC2)nc2c(N3CCC4(CC3)NC(=O)c3ccccc34)ncnc21` [Compound 142, N-(cyclopropylmethyl)-9-methyl-6-(3-oxo-2,3-dihydro-1′H-spiro[isoindole-1,4′-piperidir]-1′-yl)-9H-purine-8-carboxamide] belongs 5.82 to 6.30; to `Cn1c(C(=O)NCC2CC2)nc2c(N3CCC(n4nnc5ccccc54)CC3)ncnc21` [Compound 143, 6-[4-(1H-1,2,3-benzotriazol-1-yl)piperidin-1-yl]-N-(cyclopropylmethyl)-9-methyl-9H-purine-8-carboxamide], 5.82 to 6.30; to `C/C=C/c1nc2c(N3CCC(n4c(=O)[nH]c5ccccc54)CC3)ncnc2n1C` [Compound 144, 1-(1-{9-methyl-8-[(1E)-prop-1-en-1-yl]-9H-purin-6-yl}piperidin-4-yl)-1,3-dihydro-2H-benzimidazol-2-one], 5.82 to 6.30.
In turn, `Cn1c(C(=O)NCC2CC2)nc2c(N3CC(n4c(=O)[nH]c5cc(C(F)(F)F)ccc54)C3)ncnc21` [Compound 145, N-(cyclopropylmethyl)-9-methyl-6-{3-[2-oxo-5-(trifluoromethyl)-2,3-dihydro-1H-benzimidazol-1-yl]azetidin-1-yl}-9H-purine-8-carboxamide] had a pIC50 of 6.30 to 6.60.
As for `CCn1cc(-c2nc3c(N4CCC(n5c(=O)[nH]c6ccccc65)CC4)ncnc3n2C)cn1` [Compound 146, 1-{1-[8-(1-Ethyl-1H-pyrazol-4-yl)-9-methyl-9H-purin-6-yl]piperidin-4-yl}-1,3-dihydro-2H-benzimidazol-2-one], the pIC50 is greater than 7.30.
`CCCn1cc(-c2nc3c(N4CCC(n5c(=O)[nH]c6ccccc65)CC4)ncnc3n2C)cn1` [Compound 147, 1-{1-[9-methyl-8-(1-propyl-1H-pyrazol-4-yl)-9H-purin-6-yl]piperidin-4-yl}-1,3-dihydro-2H-benzimidazol-2-one] had a pIC50 greater than 7.30.
To `CC(C)Cn1cc(-c2nc3c(N4CCC(n5c(=O)[nH]c6ccccc65)CC4)ncnc3n2C)cn1` [Compound 148, 1-(1-{9-methyl-8-[1-(2-methylpropyl)-1H-pyrazol-4-yl]-9H-purin-6-yl}piperidin-4-yl)-1,3-dihydro-2H-benzimidazol-2-one] belongs greater than 7.30.
On to `Cn1cc(-c2nc3c(N4CCC(n5c(=O)[nH]c6ccccc65)CC4)ncnc3n2C)cn1` [Compound 149, 1-{1-[9-Methyl-8-(1-methyl-1H-pyrazol-4-yl)-9H-purin-6-yl]piperidin-4-yl}-1,3-dihydro-2H-benzimidazol-2-one], for which the pIC50 is greater than 7.30.
To `CC(C)n1cc(-c2nc3c(N4CCC(n5c(=O)[nH]c6ccccc65)CC4)ncnc3n2C)cn1` [Compound 152, 1-(1-{9-methyl-8-[1-(1-methylethyl)-1H-pyrazol-4-yl]-9H-purin-6-yl}piperidin-4-yl)-1,3-dihydro-2H-benzimidazol-2-one] belongs greater than 7.30; to `Cn1c(-n2cnc(Br)c2)nc2c(N3CCC(n4c(=O)[nH]c5ccccc54)CC3)ncnc21` [Compound 153, 1-{1-[8-(4-bromo-1H-imidazol-1-yl)-9-methyl-9H-purin-6-yl]piperidin-4-yl}-1,3-dihydro-2H-benzimidazol-2-one], 6.60 to 7.30.
For `CCn1c(C(=O)N[C@H]2CC[C@H](O)CC2)nc2c(N3CCC(n4c(=O)[nH]c5ccccc54)CC3)ncnc21` [Compound 154, 9-ethyl-N-(trans-4-hydroxycyclohexyl)-6-[4-(2-oxo-2,3-dihydro-1H-benzimidazol-1-yl)piperidin-1-yl]-9H-purine-8-carboxamide], the pIC50 is greater than 7.30.
`CCn1c(C(=O)NCC(F)(F)F)nc2c(N3CCC(n4c(=O)[nH]c5ccccc54)CC3)ncnc21` [Compound 155, 9-ethyl-6-[4-(2-oxo-2,3-dihydro-1H-benzimidazol-1-yl)piperidin-1-yl]-N-(2,2,2-trifluoroethyl)-9H-purine-8-carboxamide] showed a pIC50 greater than 7.30.
`CCn1c(C(=O)NCC2CCOCC2)nc2c(N3CCC(n4c(=O)[nH]c5ccccc54)CC3)ncnc21` [Compound 156, 9-ethyl-6-[4-(2-oxo-2,3-dihydro-1H-benzimidazol-1-yl)piperidin-1-yl]-N-(tetrahydro-2H-pyran-4-ylmethyl)-9H-purine-8-carboxamide]: the pIC50 was greater than 7.30.
With `CCCCNC(=O)c1nc2c(N3CCC(n4c(=O)[nH]c5ccccc54)CC3)ncnc2n1CC` [Compound 157, N-butyl-9-ethyl-6-[4-(2-oxo-2,3-dihydro-1H-benzimidazol-1-yl)piperidin-1-yl]-9H-purine-8-carboxamide], the pIC50 was 6.60 to 7.30.
`CCn1c(C(=O)NCC(C)C)nc2c(N3CCC(n4c(=O)[nH]c5ccccc54)CC3)ncnc21` [Compound 158, 9-ethyl-N-(2-methylpropyl)-6-[4-(2-oxo-2,3-dihydro-1H-benzimidazol-1-yl)piperidin-1-yl]-9H-purine-8-carboxamide] gave a negative logarithm of the IC50 (pIC50) greater than 7.30.
The result for `CCn1c(C(=O)N[C@H]2CC[C@H](O)CC2)nc2c(N3CCC4(CC3)C(=O)Nc3ccccc34)ncnc21` [Compound 159, 9-ethyl-N-(trans-4-hydroxycyclohexyl)-6-(2-oxo-1,2-dihydro-1′H-spiro[indole-3,4′-piperidin]-1′-yl)-9H-purine-8-carboxamide] reads greater than 7.30; that for `CCn1c(C(=O)NCC(F)(F)F)nc2c(N3CCC4(CC3)C(=O)Nc3ccccc34)ncnc21` [Compound 160, 9-ethyl-6-(2-oxo-1,2-dihydro-1′H-spiro[indole-3,4′-piperidin]-1′-yl)-N-(2,2,2-trifluoroethyl)-9H-purine-8-carboxamide], greater than 7.30.
To `CCn1c(C(=O)NCC2CCOCC2)nc2c(N3CCC4(CC3)C(=O)Nc3ccccc34)ncnc21` [Compound 161, 9-ethyl-6-(2-oxo-1,2-dihydro-1′H-spiro[indole-3,4′-piperidin]-1′-yl)-N-(tetrahydro-2H-pyran-4-ylmethyl)-9H-purine-8-carboxamide] belongs greater than 7.30.
To `CCCCNC(=O)c1nc2c(N3CCC4(CC3)C(=O)Nc3ccccc34)ncnc2n1CC` [Compound 162, N-butyl-9-ethyl-6-(2-oxo-1,2-dihydro-1′H-spiro[indole-3,4′-piperidin]-1′-yl)-9H-purine-8-carboxamide] belongs greater than 7.30.
